Drawing on patent publication US20260109708A1, “COMPOUNDS AND COMPOSITIONS USEFUL AS DEGRADERS OF MK2 KINASE” (Celgene Corporation, priority 2023, published 2026), this text covers IC50 for 17 compounds.

Bounds are passed on as bounds.

T1 sequence (P49137 whole entry): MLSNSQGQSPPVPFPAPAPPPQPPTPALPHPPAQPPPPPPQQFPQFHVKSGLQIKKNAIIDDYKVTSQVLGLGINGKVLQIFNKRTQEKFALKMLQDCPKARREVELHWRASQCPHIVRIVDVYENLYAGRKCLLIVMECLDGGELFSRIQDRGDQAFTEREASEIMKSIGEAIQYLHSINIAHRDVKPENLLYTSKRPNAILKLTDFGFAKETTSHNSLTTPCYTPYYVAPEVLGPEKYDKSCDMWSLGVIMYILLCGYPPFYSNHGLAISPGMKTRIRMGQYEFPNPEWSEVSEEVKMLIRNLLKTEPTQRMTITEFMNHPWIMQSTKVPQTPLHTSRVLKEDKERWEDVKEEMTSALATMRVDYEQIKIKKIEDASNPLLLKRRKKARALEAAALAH

This test concerns the target T1, p38a activated, mitogen-activated protein kinase-activated protein kinase 2 (MAPKAP-K2 or MK2) enzyme (Homo sapiens, UniProt P49137).
T1 construct: purchased Invitrogen PV3317
The experiment in a line: MK2 OMNIA biochemical assay (AssayQuant continuous-read kinase assay). Particulars: [MK-2]=0.05 nM, [ATP]=100 μM, [AQT0425]=10 μM. An excerpt:
Example 56.2. Mitogen-Activated Protein Kinase-Activated Protein Kinase 2 AssayQuant Technologies® Assay for Compound Potency Assessment (MK2 OMNIA Biochemical Assay)
The protocol below describes a continuous-read kinase assay optimized to measure potency of compounds against p38a activated, mitogen-activated protein kinase-activated protein kinase 2 (MAPKAP-K2 or MK2) enzyme.
A 1.25× stock solution of MK2 (PV3317, from Invitrogen) and a 5× stock solution of ATP and Sox conjugated peptide substrate, AQT0425 (CSKS-AQT0425B, from AssayQuant Technologies), were prepared in 1× kinase reaction buffer consisting of 50 mM HEPES, pH 7.5, 0.01% Brij-35, 0.55 mM EGTA, 10 mM MgCl2 and 1 mM DTT.
10 μL of the ATP and substrate solution mix was added to a Coming (3574) 384-well, white, non-binding surface microtiter plate containing 0.5 μL of serially diluted test compounds prepared in DMSO. The reactions were started with the addition of 40 μL of the enzyme solution and monitored every 71 seconds for 240 min at kex 360/λem 485 in a Synergy H4 plate reader from BioTek at room temperature.
The initial linear portions of the net progress curves were fit according to a linear equation to yield the slope and percentage of inhibition (% inhibition) at each compound concentration. The net progress curves obtained during the entirety of reactions were also fit according to an ascending single-exponential equation (Eq. 1) to yield Vobs values at each compound concentration. Plots of % Inhibition versus degrader concentrations were fit according to a dose-response equation (Eq. 2) to generate IC50 and Hill slope values while plots of Vobs versus degrader concentration were fit according to Equation 3 (Eq. 3) to generate apparent Kinact values using the GraphPad PRISM software.
where F is the fluorescence intensity from the plate reader, V0 is a constant reflecting the relationship between the instrument readout and product concentration, t is time, e is Euler's number, and Vobs is the observed inactivation rate constant.
where % Inhibition is percentage of inhibition, IC50 is half maximal inhibitory concentration, [I] is the degraders concentration, and n is the Hill slope.
where kobs is the observed inactivation rate constant, Kinact is the apparent inactivation rate constant, K1 is the apparent inhibition constant, and [I] is the degrader concentration.
In the case of `C[C@@H]1CNc2c(sc3ccc4nc(-c5cnn(C6CN(CCN7CCN(c8ccc(C9CCC(=O)NC9=O)cc8)CC7)C6)c5)ccc4c23)C(=O)N1` (stereo partly drawn) [Ex 51, 3-(4-(4-(2-(3-(4-((R)-10-Methyl-8-oxo-9,10,11,12-tetrahydro-8H-[1,4]diazepino[5′,6′:4,5]thieno[3,2-f]quinolin-3-yl)-1H-pyrazol-1-yl)azetidin-1-yl)ethyl)piperazin-1-yl)phenyl)piperidine-2,6-dione], the IC50 was below 150 nM. In the case of `C[C@@H]1COc2c(sc3ccc4nc(C#CC5CCN(C(=O)C(=O)N6CCN(c7ccc(C8CCC(=O)NC8=O)cc7)CC6)CC5)ccc4c23)C(=O)N1` (stereo partly drawn) [Ex 55, 3-(4-(4-(2-(4-(((R)-10-Methyl-8-oxo-8,9,10,11-tetrahydro-[1,4]oxazepino[7′,6′:4,5]thieno[3,2-f]quinolin-3-yl)ethynyl)piperidin-1-yl)-2-oxoacetyl)piperazin-1-yl)phenyl)piperidine-2,6-dione], the IC50 fell in the range of 501 to 1000 nM. As to `C[C@@H]1CNc2c(sc3ccc4nc(-c5ccc(C(=O)N[C@H]6CC[C@H](CCN7CCN(c8ccc9c(C%10CCC(=O)NC%10=O)nn(C)c9c8)CC7)CC6)cc5F)ccc4c23)C(=O)N1` (stereo partly drawn) [Ex 6, N-(trans-4-(2-(4-(3-(2,6-Dioxopiperidin-3-yl)-1-methyl-1H-indazol-6-yl)piperazin-1-yl)ethyl)cyclohexyl)-3-fluoro-4-((R)-10-methyl-8-oxo-9,10,11,12-tetrahydro-8H-[1,4]diazepino[5′,6′:4,5]thieno[3,2-f]quinolin-3-yl)benzamide], the IC50 was below 150 nM.

Turning to `C[C@@H]1CNc2c(sc3ccc4nc(-c5ccc(N6CCC(CCN7CCN(c8ccc(C9CCC(=O)NC9=O)cc8)CC7)CC6)cc5)ccc4c23)C(=O)N1` (stereo partly drawn) [Ex 39, 3-(4-(4-(2-(1-(4-((R)-10-methyl-8-oxo-9,10,11,12-tetrahydro-8H-[1,4]diazepino[5′,6′:4,5]thieno[3,2-f]quinolin-3-yl)phenyl)piperidin-4-yl)ethyl)piperazin-1-yl)phenyl)piperidine-2,6-dione], the IC50 lay within 151 to 500 nM. `C[C@@H]1COc2c(sc3ccc4nc(-c5ccc(N6CCN(CCN7CCN(c8ccc(C9CCC(=O)NC9=O)cc8)CC7)CC6)cc5)ccc4c23)C(=O)N1` (stereo partly drawn) [Ex 25, 3-(4-(4-(2-(4-(4-((R)-10-Methyl-8-oxo-8,9,10,11-tetrahydro-[1,4]oxazepino[7′,6′:4,5]thieno[3,2-f]quinolin-3-yl)phenyl)piperazin-1-yl)ethyl)piperazin-1-yl)phenyl)piperidine-2,6-dione]: the IC50 lay in the range of 151 to 500 nM.

On to `C[C@@H]1CNc2c(sc3ccc4nc(-c5ccc(C(=O)N[C@H]6CC[C@H](CCN7CCN(c8ccc(C9CCC(=O)NC9=O)cc8)CC7)CC6)cc5F)ccc4c23)C(=O)N1` (stereo partly drawn) [Ex 10, N-((trans)-4-(2-(4-(4-(2,6-Dioxopiperidin-3-yl)phenyl)piperazin-1-yl)ethyl)cyclohexyl)-3-fluoro-4-((R)-10-methyl-8-oxo-9,10,11,12-tetrahydro-8H-[1,4]diazepino[5′,6′:4,5]thieno[3,2-f]quinolin-3-yl)benzamide], for which the IC50 was 151 to 500 nM.

Regarding `C[C@@H]1CNc2c(sc3ccc4nc(-c5ccc(C6CCN(CCN7CCN(c8ccc(C9CCC(=O)NC9=O)cc8)CC7)CC6)cn5)ccc4c23)C(=O)N1` (stereo partly drawn) [Ex 35, 3-(4-(4-(2-(4-(6-((R)-10-Methyl-8-oxo-9,10,11,12-tetrahydro-8H-[1,4]diazepino[5′,6′:4,5]thieno[3,2-f]quinolin-3-yl)pyridin-3-yl)piperidin-1-yl)ethyl)piperazin-1-yl)phenyl)piperidine-2,6-dione], the IC50 was below 150 nM. Regarding `C[C@@H]1CNc2c(sc3ccc4nc(-c5ccc(N6CCN(CCN7CCC(c8ccc(C9CCC(=O)NC9=O)cc8)CC7)CC6)cc5)ccc4c23)C(=O)N1` (stereo partly drawn) [Ex 20, 3-(4-(1-(2-(4-(4-((R)-10-Methyl-8-oxo-9,10,11,12-tetrahydro-8H-[1,4]diazepino[5′,6′:4,5]thieno[3,2-f]quinolin-3-yl)phenyl)piperazin-1-yl)ethyl)piperidin-4-yl)phenyl)piperidine-2,6-dione], the IC50 was below 150 nM. Take `C[C@@H]1CNc2c(sc3ccc4nc(-n5cc(C6CN(CCN7CCC(c8ccc(C9CCC(=O)NC9=O)cc8)CC7)C6)nn5)ccc4c23)C(=O)N1` (stereo partly drawn) [Ex 54, 3-(4-(1-(2-(3-(1-((R)-10-Methyl-8-oxo-9,10,11,12-tetrahydro-8H-[1,4]diazepino[5′,6′:4,5]thieno[3,2-f]quinolin-3-yl)-1H-1,2,3-triazol-4-yl)azetidin-1-yl)ethyl)piperidin-4-yl)phenyl)piperidine-2,6-dione]: the IC50 is below 150 nM.

As to `C[C@@H]1CNc2c(sc3ccc4nc(-c5cnn(C6CCN(CCN7CCN(c8ccc(C9CCC(=O)NC9=O)cc8)CC7)CC6)c5)ccc4c23)C(=O)N1` (stereo partly drawn) [Ex 43, 3-(4-(4-(2-(4-(4-((R)-10-Methyl-8-oxo-9,10,11,12-tetrahydro-8H-[1,4]diazepino[5′,6′:4,5]thieno[3,2-f]quinolin-3-yl)-1H-pyrazol-1-yl)piperidin-1-yl)ethyl)piperazin-1-yl)phenyl)piperidine-2,6-dione], the IC50 was below 150 nM. The result for `C[C@@H]1CNc2c(sc3ccc4nc(-c5ccc(C(=O)N[C@H]6CC[C@H](CN7CCN(c8ccc9c(C%10CCC(=O)NC%10=O)nn(C)c9c8)CC7)CC6)cc5F)ccc4c23)C(=O)N1` (stereo partly drawn) [Ex 5, N-(trans-4-((4-(3-(2,6-dioxopiperidin-3-yl)-1-methyl-1H-indazol-6-yl)piperazin-1-yl)methyl)cyclohexyl)-3-fluoro-4-((R)-10-methyl-8-oxo-9,10,11,12-tetrahydro-8H-[1,4]diazepino[5′,6′:4,5]thieno[3,2-f]quinolin-3-yl)benzamide] reads below 150 nM; that for `C[C@@H]1CNc2c(sc3ccc4nc(-n5cc(C6CCN(CCN7CCN(c8ccc9c(C%10CCC(=O)NC%10=O)nn(C)c9c8)CC7)CC6)nn5)ccc4c23)C(=O)N1` (stereo partly drawn) [Ex 46, 3-(1-Methyl-6-(4-(2-(4-(1-((R)-10-methyl-8-oxo-9,10,11,12-tetrahydro-8H-[1,4]diazepino[5′,6′:4,5]thieno[3,2-f]quinolin-3-yl)-1H-1,2,3-triazol-4-yl)piperidin-1-yl)ethyl)piperazin-1-yl)-1H-indazol-3-yl)piperidine-2,6-dione], below 150 nM; that for `C[C@@H]1CNc2c(sc3ccc4nc(-c5cnn(C6CN(CCN7CCN(c8ccc9c(C%10CCC(=O)NC%10=O)nn(C)c9c8)CC7)C6)c5)ccc4c23)C(=O)N1` (stereo partly drawn) [Ex 52, 3-(1-Methyl-6-(4-(2-(3-(4-((R)-10-methyl-8-oxo-9,10,11,12-tetrahydro-8H-[1,4]diazepino[5′,6′:4,5]thieno[3,2-f]quinolin-3-yl)-1H-pyrazol-1-yl)azetidin-1-yl)ethyl)piperazin-1-yl)-1H-indazol-3-yl)piperidine-2,6-dione], below 150 nM.

Consider `C[C@@H]1CNc2c(sc3ccc4nc(-c5cccc(C6CCN(CCN7CCN(c8ccc(C9CCC(=O)NC9=O)cc8)CC7)CC6)c5)ccc4c23)C(=O)N1` (stereo partly drawn) [Ex 18, 3-(4-(4-(2-(4-(3-((R)-10-Methyl-8-oxo-9,10,11,12-tetrahydro-8H-[1,4]diazepino[5′,6′:4,5]thieno[3,2-f]quinolin-3-yl)phenyl)piperidin-1-yl)ethyl)piperazin-1-yl)phenyl)piperidine-2,6-dione], for which the IC50 is below 150 nM. The result for `C[C@@H]1COc2c(sc3ccc4nc(-c5ccc(N6CCN(CCN7CCN(c8ccc9c(C%10CCC(=O)NC%10=O)nn(C)c9c8)CC7)CC6)cc5)ccc4c23)C(=O)N1` (some centres unmarked) [Ex 26] reads below 150 nM; that for `C[C@@H]1CNc2c(sc3ccc4nc(-c5ccc(N6CC(CN7CCN(c8ccc(C9CCC(=O)NC9=O)cc8)CC7)C6)cc5)ccc4c23)C(=O)N1` (stereo partly drawn) [Ex 41, 3-(4-(4-((1-(4-((R)-10-Methyl-8-oxo-9,10,11,12-tetrahydro-8H-[1,4]diazepino[5′,6′:4,5]thieno[3,2-f]quinolin-3-yl)phenyl)azetidin-3-yl)methyl)piperazin-1-yl)phenyl)piperidine-2,6-dione], below 150 nM; that for `C[C@@H]1CNc2c(sc3ccc4nc(-c5ccc(C6=CCN(CCN7CCN(c8ccc(C9CCC(=O)NC9=O)cc8)CC7)CC6)cc5)ccc4c23)C(=O)N1` (stereo partly drawn) [Ex 31, 3-(4-(4-(2-(4-(4-((R)-10-Methyl-8-oxo-9,10,11,12-tetrahydro-8H-[1,4]diazepino[5′,6′:4,5]thieno[3,2-f]quinolin-3-yl)phenyl)-3,6-dihydropyridin-1(2H)-yl)ethyl)piperazin-1-yl)phenyl)piperidine-2,6-dione], below 150 nM.
